# Like-named read-outs stand apart in the source and are kept apart here.
# How the values were obtained:
# Assay type in all cases: cell-based
# Streptococcus bovis = experiment: MIC, agar dilution, Streptococcus bovis; conditions: Streptococcus equinus; strain UC6281; read-out: MIC
# Method: (§1) Stock solution of each test antibiotic compound were prepared to have a concentration of 2 mg. of the test compound per milliliter in sterile water of 0.1M ammonium acetate solution. The amount of each compound used was adjusted for base compound activity as calculated from the purity data for the selected batch of compound.
# (§2) The dilution procedure described by Washington and Sutter [Manual of Clinical Microbiology, 3rd, Edit. (Lennett, E. H. et al, Eds.), pp. 453-458 (1980), American Society for Microbiology, Washington, D.C.] was modified so that serial concentrations of 128 to 0.0625 microgram/ml. in sterile water was obtained. Then 1.5 ml. aliquots of these test antibiotic dilution mixtures are added to 13.5 molten (50° C.) Mueller-Hinton agar. Each resulting mixture is poured into 15×100 mm, sterile Petri plates and allowed to dry at room temperature overnight.
# (§3) Test bacterial cultures are maintained at -70° C. on glass beads. [See R. J. Yancey, Jr. et al, Amer. Jr. of Vet. Research, 48, No. 7, pp. 1050-1053, (1987)]. At least one bacteria-laden bead per culture is dropped into one ml. of brain heart infusion (BHI) broth for overnight culture at 37° C. in 5% V/V carbon dioxide in air atmosphere.
# (§4) On the data of assay, 2 to 8 drops of the bacterial broth cultures are transferred to fresh BHI broth (1 ml.) and the mixture is incubated for 4 to 6 hours at 37° C. in a 5% V/V carbon dioxide in air atmosphere. The resulting cultures are then diluted to match a 0.5 MacFarland standard and further diluted 1:20 V/V with sterile saline solution.
# (§5) A 0.001 ml. drop of the resulting mixture, containing approximately 10^3 to 10^4 colony forming units (CFU) of each test bacteria organism, is dispensed onto the surface of the test antibiotic compound test plates with a Steer's type replicator. The resulting innoculated plates are incubated 16 to 18 hours at 37° C. with a carbon dioxide atmosphere.
# as §1, with “Stock solutions” for “Stock solution”
# as §2, with “mm.” for “mm,”
# as §2, with “for Microbiology.” for “for Microbiology,”, “15×100 mm.” for “15×100 mm,”
# as §3, with “culture” for “cultures”
# (§6) On the day of assay, 2 to 8 drops of the bacterial broth cultures are transferred to fresh BHI broth (1 ml.) and the mixture is incubated for 4 to 6 hours at 37° C. in a 5% V/V carbon dioxide in air atmosphere. […]
# [1] = tested on: Streptococcus dysgalactiae; experiment: MIC, agar dilution, Streptococcus dysgalactiae; conditions: Streptococcus dysgalactiae; strain UC251; read-out: MIC
# Method: as §1, §2, §3, §4, §5
# as §1, with “Stock solutions” for “Stock solution”
# as §2, with “mm.” for “mm,”
# as §2, with “for Microbiology.” for “for Microbiology,”, “15×100 mm.” for “15×100 mm,”
# as §3, with “culture” for “cultures”
# as §6
# Micrococcus luteus = experiment: MIC, agar dilution, Micrococcus luteus; conditions: Micrococcus luteus; strain UC130; read-out: MIC
# Method: as §1, §2, §3, §4, §5
# as §1, with “Stock solutions” for “Stock solution”
# as §2, with “mm.” for “mm,”
# as §2, with “for Microbiology.” for “for Microbiology,”, “15×100 mm.” for “15×100 mm,”
# as §3, with “culture” for “cultures”
# as §6
# Enterococcus faecium = experiment: MIC, agar dilution, Enterococcus faecium; conditions: Enterococcus faecium; strain UC241; read-out: MIC
# Method: as §1, with “Stock solutions” for “Stock solution”
# as §2, §3, §4, §5, §1
# as §2, with “mm.” for “mm,”
# as §2, with “for Microbiology.” for “for Microbiology,”, “15×100 mm.” for “15×100 mm,”
# as §3, with “culture” for “cultures”
# as §6
# Escherichia coli = experiment: MIC, agar dilution, Escherichia coli; conditions: Escherichia coli, read-out: MIC
# Method: as §1, §2, §3, §4, §5
# as §1, with “Stock solutions” for “Stock solution”
# as §2, with “mm.” for “mm,”
# as §2, with “for Microbiology.” for “for Microbiology,”, “15×100 mm.” for “15×100 mm,”
# as §3, with “culture” for “cultures”
# as §6
# Streptococcus agalactiae = experiment: MIC, agar dilution, Streptococcus agalactiae; conditions: Streptococcus agalactiae, read-out: MIC
# Method: as §1, §2, §3, §4, §5
# as §1, with “Stock solutions” for “Stock solution”
# as §2, with “mm.” for “mm,”
# as §2, with “for Microbiology.” for “for Microbiology,”, “15×100 mm.” for “15×100 mm,”
# as §3, with “culture” for “cultures”
# as §6
# Streptococcus uberis = experiment: MIC, agar dilution, Streptococcus uberis; conditions: Streptococcus uberis, read-out: MIC
# Method: as §1, §2, §3, §4, §5
# as §1, with “Stock solutions” for “Stock solution”
# as §2, with “mm.” for “mm,”
# as §2, with “for Microbiology.” for “for Microbiology,”, “15×100 mm.” for “15×100 mm,”
# as §3, with “culture” for “cultures”
# as §6
# Pseudomonas aeruginosa = experiment: MIC, agar dilution, Pseudomonas aeruginosa; conditions: Pseudomonas aeruginosa, ATCC27853; strain ATCC 27853; read-out: MIC
# Method: as §1, §2, §3, §4, §5
# as §1, with “Stock solutions” for “Stock solution”
# as §2, with “mm.” for “mm,”
# as §2, with “for Microbiology.” for “for Microbiology,”, “15×100 mm.” for “15×100 mm,”
# as §3, with “culture” for “cultures”
# as §6
# Pasteurella hemolytica = experiment: MIC (minimum inhibitory concentration), agar dilution, Pasteurella hemolytica; conditions: Pasteurella, read-out: MIC
# Method: as §1, §2, §3, §4, §5
# as §1, with “Stock solutions” for “Stock solution”
# as §2, with “mm.” for “mm,”
# as §2, with “for Microbiology.” for “for Microbiology,”, “15×100 mm.” for “15×100 mm,”
# as §3, with “culture” for “cultures”
# as §6
# Staphylococcus aureus = experiment: MIC, agar dilution, Staphylococcus aureus; conditions: Staphylococcus aureus, read-out: MIC
# Method: as §1, §2, §3, §4, §5
# as §1, with “Stock solutions” for “Stock solution”
# as §2, with “mm.” for “mm,”
# as §2, with “for Microbiology.” for “for Microbiology,”, “15×100 mm.” for “15×100 mm,”
# as §3, with “culture” for “cultures”
# as §6
# Salmonella typhimurium = experiment: MIC, agar dilution, Salmonella typhimurium; conditions: Salmonella enterica, read-out: MIC
# Method: as §1, §2, §3, §4, §5
# as §1, with “Stock solutions” for “Stock solution”
# as §2, with “mm.” for “mm,”
# as §2, with “for Microbiology.” for “for Microbiology,”, “15×100 mm.” for “15×100 mm,”
# as §3, with “culture” for “cultures”
# as §6
# Corynebacterium pyogenes = experiment: MIC, agar dilution, Corynebacterium pyogenes; conditions: strain 213-2; read-out: MIC
# Method: as §1, §2, §3, §4, §5
# as §1, with “Stock solutions” for “Stock solution”
# as §2, with “mm.” for “mm,”
# as §2, with “for Microbiology.” for “for Microbiology,”, “15×100 mm.” for “15×100 mm,”
# as §3, with “culture” for “cultures”
# as §6
# Pasteurella multocida = experiment: MIC, agar dilution, Pasteurella multocida; conditions: Pasteurella multocida; strain UC9581; read-out: MIC
# Method: as §1, §2, §3, §4, §5
# as §1, with “Stock solutions” for “Stock solution”
# as §2, with “mm.” for “mm,”
# as §2, with “for Microbiology.” for “for Microbiology,”, “15×100 mm.” for “15×100 mm,”
# as §3, with “culture” for “cultures”
# as §6
# Streptococcus suis = experiment: MIC, agar dilution, Streptococcus suis; conditions: Streptococcus suis; strain 650-2; read-out: MIC
# Method: as §1, §2, §3, §4, §5
# as §1, with “Stock solutions” for “Stock solution”
# as §2, with “mm.” for “mm,”
# as §2, with “for Microbiology.” for “for Microbiology,”, “15×100 mm.” for “15×100 mm,”
# as §3, with “culture” for “cultures”
# as §6
# Salmonella choleraesuis = experiment: MIC, agar dilution, Salmonella choleraesuis; conditions: Salmonella enterica, read-out: MIC
# Method: as §1, §2, §3, §4, §5
# as §1, with “Stock solutions” for “Stock solution”
# as §2, with “mm.” for “mm,”
# as §2, with “for Microbiology.” for “for Microbiology,”, “15×100 mm.” for “15×100 mm,”
# as §3, with “culture” for “cultures”
# as §6
# [2] = tested on: Bordetella bronchiseptica; experiment: MIC, agar dilution, Bordetella bronchiseptica; conditions: Bordetella bronchiseptica; strain UC6313; read-out: MIC
# Method: as §1, §2, §3, §4, §5
# as §1, with “Stock solutions” for “Stock solution”
# as §2, with “mm.” for “mm,”
# as §2, with “for Microbiology.” for “for Microbiology,”, “15×100 mm.” for “15×100 mm,”
# as §3, with “culture” for “cultures”
# as §6
# Enterococcus faecalis = experiment: MIC, agar dilution, Enterococcus faecalis; conditions: Enterococcus faecalis; strain UC694; read-out: MIC
# Method: as §1, with “Stock solutions” for “Stock solution”
# as §2, §3, §4, §5, §1
# as §2, with “mm.” for “mm,”
# as §2, with “for Microbiology.” for “for Microbiology,”, “15×100 mm.” for “15×100 mm,”
# as §3, with “culture” for “cultures”
# as §6
# [3] = TYPHIMURIUM / UC6162, strain UC6162
# [4] = TYPHIMURIUM / UC6164, strain UC6164
# [5] = CHOLERAESUIS / UC6073, strain UC6073
# [6] = CHOLERAESUIS / UC6077, strain UC6077
MIC (Streptococcus bovis) [µg/mL],MIC [1] [µg/mL],MIC (Micrococcus luteus) [µg/mL],MIC (Enterococcus faecium) [µg/mL],MIC (Escherichia coli; strain UC3784) [µg/mL],MIC (Escherichia coli; strain UC6720) [µg/mL],MIC (Escherichia coli; strain UC9670) [µg/mL],MIC (Streptococcus agalactiae; strain UC3947) [µg/mL],MIC (Streptococcus agalactiae; strain UC6892) [µg/mL],MIC (Streptococcus uberis; strain UC3946) [µg/mL],MIC (Streptococcus uberis; strain UC6159) [µg/mL],MIC (Pseudomonas aeruginosa) [µg/mL],MIC (Staphylococcus aureus; strain UC6093) [µg/mL],MIC (Staphylococcus aureus; strain UC6097) [µg/mL],MIC (Staphylococcus aureus; strain UC9203) [µg/mL],MIC (Salmonella typhimurium; [3]) [µg/mL],MIC (Salmonella typhimurium; [4]) [µg/mL],SMILES,MIC (Pasteurella hemolytica; strain UC6531) [µg/mL],MIC (Pasteurella hemolytica; strain UC6532) [µg/mL],MIC (Pasteurella hemolytica; strain UC9582) [µg/mL],other results
> 32,≤ 0.06,0.13,> 32,8,16,8,2,> 32,0.13,8,> 32,4,2,2,16,16,CCC(C)SSCC1=C(C(=O)O)N2C(=O)[C@@H](NC(=O)/C(=N\OC)c3csc(N)n3)[C@H]2SC1 (stereo partly drawn) [Example 13],1,0.13,0.25,MIC (Corynebacterium pyogenes): 32 µg/mL; MIC (Pasteurella multocida): 8 µg/mL; MIC (Streptococcus suis): ≤ 0.06 µg/mL; MIC (Salmonella choleraesuis; [5]): 32 µg/mL; MIC (Salmonella choleraesuis; [6]): > 32 µg/mL; MIC [2]: > 32 µg/mL; MIC (Enterococcus faecalis): > 32 µg/mL
> 32,≤ 0.06,≤ 0.06,> 32,8,16,8,2,> 32,0.13,8,> 32,4,4,4,16,32,CCCCSSCC1=C(C(=O)O)N2C(=O)[C@@H](NC(=O)/C(=N\OC)c3csc(N)n3)[C@H]2SC1 [Example 12],0.5,0.5,0.5,MIC (Corynebacterium pyogenes): 32 µg/mL; MIC (Pasteurella multocida): 8 µg/mL; MIC (Streptococcus suis): ≤ 0.06 µg/mL; MIC (Salmonella choleraesuis; [5]): 32 µg/mL; MIC (Salmonella choleraesuis; [6]): 32 µg/mL; MIC [2]: > 32 µg/mL; MIC (Enterococcus faecalis): > 32 µg/mL
≤ 0.06,≤ 0.06,≤ 0.06,> 32,8,8,8,≤ 0.06,≤ 0.06,≤ 0.06,16,> 32,2,2,2,16,8,CO/N=C(\C(=O)N[C@@H]1C(=O)N2C(C(=O)O)=C(CSSc3ccccc3)CS[C@H]12)c1csc(N)n1 [Example 15],0.13,0.25,0.25,MIC (Corynebacterium pyogenes): 4 µg/mL; MIC (Pasteurella multocida): ≤ 0.06 µg/mL; MIC (Streptococcus suis): ≤ 0.06 µg/mL; MIC (Salmonella choleraesuis; [5]): 32 µg/mL; MIC (Salmonella choleraesuis; [6]): 32 µg/mL; MIC [2]: > 32 µg/mL; MIC (Enterococcus faecalis): > 32 µg/mL
≤ 0.06,≤ 0.06,≤ 0.06,> 32,4,8,4,≤ 0.06,≤ 0.06,≤ 0.06,4,> 32,1,2,1,16,8,CO/N=C(\C(=O)N[C@@H]1C(=O)N2C(C(=O)O)=C(CSSCc3ccco3)CS[C@H]12)c1csc(N)n1 [Example 16],0.25,0.13,0.13,MIC (Corynebacterium pyogenes): 0.13 µg/mL; MIC (Pasteurella multocida): 1 µg/mL; MIC (Streptococcus suis): ≤ 0.06 µg/mL; MIC (Salmonella choleraesuis; [5]): 16 µg/mL; MIC (Salmonella choleraesuis; [6]): 32 µg/mL; MIC [2]: > 32 µg/mL; MIC (Enterococcus faecalis): > 32 µg/mL

# Reference: patent US5134137A, “Cephalosporin antibiotics” (The Upjohn Company, priority 1990, dated 1992)
